According to patent publication US20260335323A1, “CHIMERIC MOLECULE” (UCL Business Ltd, priority 2023, published 2026):

How the values were obtained:
[1] = tested on: SH-SY5Y cells; assay: mito-mKeima mitophagy assay (mitophagy index); assay type: cell-based, human; conditions: for enhancement of mitophagy: co-treating with excess TSPO ligand
Protocol: (§1) FIG. 1. The structure of AUTAC-4 is shown in (A). (B) Representative images of SH-SY5Y cells stably expressing the mito-mKeima reporter treated with AUTAC4 for 18 h. Nuclei were stained with Hoechst 33342, healthy mitochondria are shown in green and mitochondria in lysosomes are shown in red. (C-E) Fold change in mitophagy index over time after treatment with increasing concentrations of AUTAC4 under treatment with DMSO (C), 3 mM CCCP (D) or 0.1/0.1 mM antimycin/oligomycin (E), also for 18 h. (F) Quantification of changes in mitochondrial membrane potential over time (DYm) by measuring the TMRM relative fluorescence intensity (RFI) treated with DMSO, 10 mM CCCP, 10 mM and 20 mM AUTAC4. Normalised to number of nuclei. (G) Representative western blot of SH-SY5Y cells treated with DMSO, 10 mM AUTAC4 or 10 mM AUTAC4+0.1/0.1 mM antimycin/oligomycin for 18 h and, probed for p62, b-actin and Tom20. Quantifications of western blot for changes in Tom20 and p62 levels shown in (H) and (I), respectively. (J) Representative images of PANC-1 cells stably expressing the mCherry-EGFP-LC3 tandem reporter. Nuclei stained with Hoechst 33342, autophagosomes are shown in the EGFP channel and autolysosomes in the mCherry channel. Fold change in the number of autophagosome (K) and autolysosome (L) puncta in AUTAC4 treated cells. All data shown are mean±SEM, n=3, *p<0.05, *** p<0.001. For mito-mKeima experiments, statistics were calculated by Two-way ANOVA with Tukey's multiple comparisons test. For western blots, TMRM and LC3 tandem reporter assay, statistics were calculated with one-way ANOVA with Tukey's multiple comparisons test.
FIG. 5. ULKTACs induce potent mitophagy after colocalisation and local activation of ULK1 at mitochondria (A) Representative immunofluorescence of PANC-1 cells treated with CCCP, ULKTACs or both and immunostained for TOM20 and ULK1 and counterstained with Alexa 488 and 568, respectively. Nuclei stained with Hoechst 33342. (B) Quantification of the colocalised ULK1 to TOM20 spot area of PANC-1 cells treated with DMSO, 5 mM CCCP, 10 mM BL-918, 10 mM BL-918+5 mM CCCP, […] NZ-65, […] NZ-65+5 mM CCCP, […] NZ-66, […] NZ-66+5 mM CCCP, 50 mM TSPO ligand, […] NZ-65+50 mM TSPO ligand, […] NZ-66+50 mM TSPO ligand. (C) Western blot of SH-SY5Y cells treated with 1 mM ULKTACs, 5 mM CCCP or both, probed for Mfn2, b-Actin and Tom20—quantifications are shown in (D) for Mfn2, normalised to Actin. (E) Representative images of SH-SY5Y cells stably expressing the mito-mKeima reporter treated with 3 mM CCCP, NZ-65 or both. Nuclei were stained with Hoechst 33342, healthy mitochondria are shown in green and mitochondria in lysosomes are shown in red. Fold change in mitophagy index over time after treatment for the indicated timepoints with title treatments alone or co-treated with 1.25 mM ULKTAC or 10 mM ULKTAC NZ-65 (F) or NZ-66 (G). Fold change in mitophagy index over time after treatment for the indicated timepoints with DMSO, 1.25 µM NZ-65 or NZ-66±50 µM TSPO ligand under co-treatment with DMSO (H) or 3 μM CCCP (I). […] Normalised to number of nuclei. All data shown are mean±SEM, n=3, *p<0.05, ** p<0.01, *** p<0.001. For colocalisation and TMRM experiments, one-way ANOVA with Dunnett's multiple comparisons test. For western blots, one-way ANOVA with Tukey's multiple comparisons test and unpaired t-test. For mito-mKeima experiment, two-way ANOVA with Tukey's multiple comparisons test.
SH-SY5Y stably expressing mito-mKeima were produced as previously described28,29. Cells were seeded in 384 well CellCarrier Ultra plates (PerkinElmer) 24 hours before treatment in complete media without phenol red. Cells were treated with increasing concentrations of BL-918, AUTAC4, NZ-65 or NZ-66, 24 hours prior to treatment with increasing concentrations of mitochondrial uncouplers to cause mitochondrial insult. SH-SY5Y mitochondria were treated with DMSO, 3 μM CCCP, 10 μM CCCP, 0.1/0.1 μM antimycin/oligomycin (AO), 0.5/0.5 µM AO or 1/1 μM AO. […]

[2] = tested on: SH-SY5Y cells; assay: TMRM assay of mitochondrial membrane potential; assay type: cell-based, human
Protocol: as §1, with “All data shown are mean±SEM, n=3, *p<0.05, *** p<0.001.” left out
FIG. 5. […] (B) Quantification of the colocalised ULK1 to TOM20 spot area of PANC-1 cells treated with DMSO, 5 mM CCCP, 10 mM BL-918, 10 mM BL-918+5 mM CCCP, […] NZ-65, […] NZ-65+5 mM CCCP, […] NZ-66, […] NZ-66+5 mM CCCP, 50 mM TSPO ligand, […] NZ-65+50 mM TSPO ligand, […] NZ-66+50 mM TSPO ligand. (C) Western blot of SH-SY5Y cells treated with 1 mM ULKTACs, 5 mM CCCP or both, probed for Mfn2, b-Actin and Tom20—quantifications are shown in (D) for Mfn2, normalised to Actin. […]

[3] = co-treatment with antimycin/oligomycin

SMILES | enhancement of mitophagy [1] | enhancement of induced mitophagy ([1]; co-treatment with CCCP) | enhancement of induced mitophagy [1, 3] | mitochondrial membrane potential (TMRM) [2] | induction of mitophagy ([1]; compound alone, higher concentrations)
O=C(Nc1cc(C(F)(F)F)cc(C(F)(F)F)c1)N[C@@H](C(=O)Nc1ccc(F)cc1F)c1ccc(OCc2cn(CCOCCOCCNC(=O)C(=O)c3c(-c4ccccc4)[nH]c4ccccc34)nn2)cc1 [NZ-65, (R)-2-(3-(3,5-bis(trifluoromethyl)phenyl)ureido)-N-(2,4-difluorophenyl)-2-(4-((1-(2-(2-(2-(2-oxo-2-(2-phenyl-1H-indol-3-yl)acetamido)ethoxy)ethoxy)ethyl)-1H-1,2,3-triazol-4-yl)methoxy)phenyl) acetamide] | restricts enhancement of mitophagy | remarkably strong increases in mitophagy | remarkably strong increases in mitophagy | neither NZ-65 nor NZ-66 showed any effect | 
O=C(Nc1cc(C(F)(F)F)cc(C(F)(F)F)c1)N[C@@H](C(=O)Nc1ccc(F)cc1F)c1ccc(OCc2cn(CCCCCCNC(=O)C(=O)c3c(-c4ccccc4)[nH]c4ccccc34)nn2)cc1 [NZ-66, (R)-2-(3-(3,5-bis(trifluoromethyl)phenyl)ureido)-N-(2,4-difluorophenyl)-2-(4-((1-(6-(2-oxo-2-(2-phenyl-1H-indol-3-yl)acetamido)hexyl)-1H-1,2,3-triazol-4-yl)methoxy)phenyl) acetamide] | restricts enhancement of mitophagy | remarkably strong increases in mitophagy | remarkably strong increases in mitophagy | neither NZ-65 nor NZ-66 showed any effect | 
O=C(Nc1ccc(F)cc1F)[C@H](NC(=S)Nc1cc(C(F)(F)F)cc(C(F)(F)F)c1)c1ccccc1 [BL-918, reference compound] |  |  |  | depolarisation of the outer mitochondrial membrane at higher concentrations | induction of mitophagy only at higher concentrations
